Assay in all cases: in vitro enzyme inhibition, optical density read-out
Holding throughout (assay type): biochemical
Conditions in all cases: positive control; substrate, pH and temperature not given

Assay [1] deals with T1, Elastase.
T1 construct: gene CELA1; usual assay enzyme is native porcine pancreatic elastase, human neutrophil elastase possible
An excerpt:
in vitro enzyme inhibition, optical density read-out on Elastase

In assay [2] the target is T2, Hyaluronidase.
T2 construct: gene SPAM1; usual assay enzyme is native bovine testicular hyaluronidase
The text has this:
in vitro enzyme inhibition, optical density read-out on Hyaluronidase

Assay [3] deals with T3, Collagenase.
T3 construct: gene colG; usual assay enzyme is native clostridial collagenase, human MMP1 possible
An excerpt: in vitro enzyme inhibition, optical density read-out on Collagenase

Regarding `O=c1cc(CO)occ1O` [Kojic acid], the “Elastase / IC50” value in assay [1] worked out at 21.60 ± 0.9 µg/mL. Further, the “Hyaluronidase / IC50” value in assay [2] stood at 14.46 ± 0.6 µg/mL.

Take `O=c1c(O)c(-c2ccc(O)c(O)c2)oc2cc(O)cc(O)c12` [Quercetin]: the “Collagenase / IC50” value in assay [3] came to 24.83 ± 1.8 µg/mL.

The record behind these values is PMC10948610, “Profiling of Petroselinum sativum (mill.) fuss phytoconstituents and assessment of their biocompatibility, antioxidant, anti-aging, wound healing, and antibacterial activities” (Frontiers in Nutrition, 2024).
